The subject of this test is A. fum. The test can be described thus: In vitro antifungal MIC, NCCLS M38P broth method in RPMI 1640/MOPS pH 7. Particulars: for MIC: Aspergillus fumigatus. The test is classed as cell-based, Aspergillus fumigatus. The source says:
The in vitro evaluation of the antifungal activity of the compound of this invention (as shown in Table I) can be performed by determining the minimum inhibitory concentration (MIC) which is the concentration of the test compound in Rosewell Park Memorial Institute (RPMI) 1640 liquid medium buffered with 3-(Morpholino)propane sulfonic acid (MOPS) to pH 7, at which there is significant inhibition of the particular fungi. In practice the National Committee for Clinical Laboratory Standard (NCCLS) M27A document for Candida and Cryptococcus and M38P for Aspergillus was used to determine the MIC and readings recorded only when the Quality Control results fell into the acceptable range. After MIC results had been recorded, 100 μL from each of the well showing no growth was spread over Sabouraud Dextrose Agar (SDA) to determine the minimum fungicidal concentration (MFC).

The mark [1] stands for this setting: A. fumigatus strain 1008, RPMI 1640, MOPS pH 7.
Setting [2] is: A. fumigatus strain Si-l, RPMI 1640, MOPS pH 7.
Where [3] appears, read: pH 7, read-out: MIC (A. fum.) 1008.
[4] abbreviates: pH 7, read-out: MIC (A. fum.) Si-l.
Setting [5] is: A. fumigatus strain 1008, RPMI 1640, MOPS pH 7, read-out: MIC (A. fum.) 1008.
Setting [6] is: A. fumigatus strain Si-l, RPMI 1640, MOPS pH 7, read-out: MIC (A. fum.) Si-l.

Molecules are shown by their SMILES. Converted amounts (≈) assume the structure as drawn. Like-named read-outs stand apart in the source and are kept apart here. Where only a bound is given, the exact number is not on record here.

In general, MIC refers to the least concentration at which growth counts as inhibited.

As for `COC(=O)C(CCSC)n1cnn([C@H](C)[C@](O)(Cn2cncn2)c2ccc(F)cc2F)c1=S` (stereo partly drawn) [Compound No. 52, Methyl-2-methylthioethyl-2-[[(1R,2R)-2-(2,4-difluorophenyl)-2-hydroxy-1-methyl-3-(1H-1,2,4-triaolyl)propyl]-(2H,4H)-1,2,4-triazol-3-thion-4-yl]acetate], under setting [1], the “MIC (A. fum.) 1008” value is more than 16 µg/mL. In addition, under setting [2], the “MIC (A. fum.) Si-l” value is more than 16 µg/mL.
With `C[C@@H](N(NC(=O)OC(C)(C)C)C(=S)Nc1ccc([N+](=O)[O-])cc1)[C@](O)(Cn1cncn1)c1ccc(F)cc1F` [Compound No. 8, 1-t-Butoxycarbonyl-2-[(1R,2R)-2-(2,4difluorophenyl)-2-hydroxy-1-methyl-3-(1H-1,2,4-triazol-1-yl)propyl]-4-[4-nitrophenyl]thiosemicarbazide], the MIC is more than 16 µg/mL under setting [3] and more than 16 µg/mL under setting [4].
Turning to `C[C@@H](N(NC(=O)OC(C)(C)C)C(=S)Nc1ccc(OC2CCCCO2)cc1)[C@](O)(Cn1cncn1)c1ccc(F)cc1F` (stereo partly drawn) [Compound No. 5, 1-t-Butoxycarbonyl-2-[(1R,2R)-2-(2,4-difluorophenyl)-2-hydroxy-1-methyl-3-(1H-1,2,4-triazol-1-yl)propyl]-4-[4-(tetrahydropyranyloxy)phenyl]thiosemicarbazide], the minimum inhibitory concentration (MIC) is more than 16 µg/mL under setting [5] and more than 16 µg/mL under setting [6].
As to `COc1ccc(NC(=S)N(NC(=O)OC(C)(C)C)[C@H](C)[C@](O)(Cn2cncn2)c2ccc(F)cc2F)c(OC)c1` [Compound No. 4, 1-t-Butoxycarbonyl-2-[(1R,2R)-2-(2,4-difluorophenyl)-2-hydroxy-1-methyl-3-(1H-1,2,4-triazol-1-yl)propyl]-4-[2,4-dimethoxyphenyl]thiosemicarbazide], the MIC runs as follows: under setting [5], more than 16 µg/mL; under setting [6], more than 16 µg/mL.
On to `COc1ccc(NC(=S)N(N)[C@H](C)[C@](O)(Cn2cncn2)c2ccc(F)cc2F)c(OC)c1` [Compound No. 32, 2-[(1R,2R)-2-(2,4-difluorophenyl)-2-hydroxy-1-methyl-3-(1H-1,2,4-triazol-1-yl)propyl]-4-[2,4-dimethoxyphenyl]thiosemicarbazide], for which the MIC is more than 16 µg/mL under setting [5] and more than 16 µg/mL under setting [6].
For the compound `C[C@@H](n1ncn(-c2ccc([N+](=O)[O-])cc2)c1=S)[C@](O)(Cn1cncn1)c1ccc(F)cc1F` [Compound No. 43, 2-[(1R,2R)-2-(2,4-difluorophenyl)-2-hydroxy-1-methyl-3-(1,2,4-triazol-1-yl)propyl]-4-[4-nitrophenyl]-(2H,4H)-1,2,4-triazol-3-thione], the minimum inhibitory concentration (MIC) is 4 µg/mL (≈ 8.45 µM) under setting [3] and 2 µg/mL (≈ 4.22 µM) under setting [4].
For the compound `C[C@@H](N(N)C(=S)Nc1ccc(OC(F)(F)F)cc1)[C@](O)(Cn1cncn1)c1ccc(F)cc1F` [Compound No. 34, 2-[(1R,2R)-2-(2,4-Difluorophenyl)-2-hydroxy-1-methyl-3-(1H-1,2,4-triazol-1-yl)propyl]-4-[4-trifluoromethoxyphenyl]thiosemicarbazide], the MIC is, setting by setting: under setting [5], 2 µg/mL (≈ 3.98 µM); under setting [6], 2 µg/mL (≈ 3.98 µM).
Turning to `CCCCCCCCNC(=S)N(NC(=O)OC(C)(C)C)[C@H](C)[C@](O)(Cn1cncn1)c1ccc(F)cc1F` [Compound No. 15], the “MIC (A. fum.) 1008” value under setting [1] is more than 16 µg/mL. The “MIC (A. fum.) Si-l” value under setting [2] was more than 16 µg/mL.
Take `C[C@@H](N(N)C(=O)Nc1ccc(Cl)cc1)[C@](O)(Cn1cncn1)c1ccc(F)cc1F` [Compound No. 28, 2-[(1R,2R)-2-(2,4-difluorophenyl)-2-hydroxy-1-methyl-3-(1H-1,2,4-triazol-1-yl)propyl]-4-[4-chlorophenyl]semicarbazide]: the MIC is more than 16 µg/mL under setting [3] and more than 16 µg/mL under setting [4].
Turning to `COC(=O)C(CC(C)C)n1cnn([C@H](C)[C@](O)(Cn2cncn2)c2ccc(F)cc2F)c1=S` (stereo partly drawn) [Compound No. 51, Methyl-2-isobutyl-2-[[(1R,2R)-2-(2,4-difluorophenyl)-2-hydroxy-1-methyl-3-(1H-1,2,4-triaolyl)propyl]-(2H,4H)-1,2,4-triazol-3-thion-4-yl]acetate], the “MIC (A. fum.) 1008” value under setting [1] was more than 16 µg/mL. Besides, under setting [2], the “MIC (A. fum.) Si-l” value is less than 16 µg/mL.

Values taken from patent publication US20060178415A1, “Azole derivatives as antifungal agents” (priority 2002, published 2006).
